Results reported in patent US20240327414A1, “CYCLOPROPYL-(HETERO)ARYL-SUBSTITUTED ETHYL- SULFONE / SULFOXIMINE-PYRIDINE N-OXIDE DERIVATIVES” (Boehringer Ingelheim Vetmedica GmbH, priority 2023, published 2024).

Key:
adult C. felis fleas [1] = experiment: Ingestion activity against adult Ctenocephalides felis (membrane feeding, motility); settings: 48 h, ingestion in bovine blood, % motility reduction 48h post treatment
Method: Example 6: Screening Method to Test Ingestion Activity of N-Oxide Compounds of Formula (I), (Ia) or (Ib) Against Adult Ctenocephalides felis
N-oxide compounds of formula (I), (Ia) and (Ib) dissolved in 100% DMSO are added to bovine blood and offered via an artificial membrane feeding system to adult C. felis fleas. The motility of fleas is then visually inspected 48h post treatment. Efficacy is expressed in % motility reduction compared to controls containing blood treated with DMSO only. A dose response series is implemented to determine EC50 values.

[2] = tested on: adult Ctenocephalides felis fleas; experiment: Contact activity against adult Ctenocephalides felis; settings: adult C. felis, mortality at 72 hours post-treatment
Method: Example 4: Screening Method to Test Contact Activity of N-Oxide Compounds of Formula (I), (Ia) or (Ib) Against Adult Ctenocephalides felis
N-oxide compounds of formula (I), (Ia) and (Ib) dissolved in 100% DMSO are diluted in acetone to a desired concentration. The resulting formulation is used to coat the fibers of a 0.5-inch-long piece of pipe cleaner placed in a glass scintillation vial. The vial is capped with a rubber gasket and filter paper insert. After the acetone has evaporated, ten adult Ctenocephalides felis fleas are added to each vial. The vials are then incubated at 22° C., 80% relative humidity, and 12 hours of light/12 hours of dark until a visual evaluation for mortality is performed at 72 hours post-treatment. Compound efficacy at a given dose is expressed as percentage mortality and adjusted to remove background mortality observed in control vials containing DMSO only. A dose response series of treated vials is implemented to determine EC50 values.

[3] = tested on: adult R. sanguineus ticks; experiment: Contact activity against adult Rhipicephalus sanguineus; settings: mortality at 48 hours post-treatment
Method: Example 5: Screening Method to Test Contact Activity of N-Oxide Compounds of Formula (I), (Ia) or (Ib) Against Adult Rhipicephalus sanguineus
N-oxide compounds of formula (I), (Ia) and (Ib) formulated in 100% DMSO are diluted in a solution containing acetone and Triton X-100 (0.02%). The resulting formulation is used to coat the inner walls of glass scintillation vials and the filter paper covering the cap of the vial. Once dried, ten adult R. sanguineus ticks are added to the vials. The vials are incubated at 24° C., 95% relative humidity, and 12 hours of light/12 hours of dark until evaluation. Ticks are visually evaluated for mortality at 48 hours post-treatment. Compound efficacy at a given dose is expressed as percentage mortality. A dose response series was implemented to determine EC50 values.

adult C. felis fleas [4] = experiment: Ingestion activity against adult Ctenocephalides felis (alternative method, membrane feeding, mortality); settings: bovine blood, mortality at 48 hours post-treatment
Method: Selected N-oxide compounds of formula (I), (Ia) and (Ib) and compound “P23” of WO 2016/030229 dissolved in 100% DMSO are diluted in bovine blood with sodium heparin anti-coagulant. The resulting formulation is offered via an artificial membrane feeding system to approximately 15 adult C. felis fleas previously dispensed into 24-well plates. The plates are then incubated in a double-chambered device. Visual evaluation for mortality is performed at 48 hours post-treatment. Compound efficacy at a given dose is expressed as percentage mortality and determined by normalization to positive and negative controls. A dose response series is implemented to determine EC50 values.
Example 7: Screening Method to Test Ingestion Activity of N-Oxide Compounds of Formula (I), (Ia) or (Ib) Against Adult Ctenocephalides felis (Alternative Method)
N-oxide compounds of formula (I), (Ia) and (Ib) dissolved in 100% DMSO are diluted in bovine blood with sodium heparin anti-coagulant. The resulting formulation is offered via an artificial membrane feeding system to approximately 15 adult C. felis fleas previously dispensed into 24-well plates. The plates are then incubated in a double-chambered device. Visual evaluation for mortality is performed at 48 hours post-treatment. Compound efficacy at a given dose is expressed as percentage mortality and determined by normalization to positive and negative controls. A dose response series is implemented to determine EC50 values.
The structurally closest prior art compound “P23” of WO 2016/030229 is characterized vis-à-vis selected N-oxide compounds of formula (I), (Ia) and (Ib) with regard to their potency in in vitro screening assay to test ingestion activity against adult fleas (Ctenocephalides felis) (alternative method according to Example 7).

Plutella xylostella = experiment: Insecticidal test on Plutella xylostella; assay type: in vivo; settings: 144 h, Chinese cabbage seedling dip, 6 days after the dip treatment, read-out: activity level (corrected mortality rate)
Method: Example 15: Insecticidal Test on Plutella xylostella
The N-oxide compounds of formula (I), (Ia) and (Ib) of the present invention or salts thereof are separately dispersed in water and diluted to 500 ppm. Ten adults of Plutella xylostella are released onto Chinese cabbage seedlings and allowed to lay eggs thereon. 2 days after the release of the adults, the seedling is dipped in the dispersion for about 30 seconds. After air dried, the seedling is kept in a room at 25° C. 6 days after the dip treatment, the numbers of the dead and alive insects are counted. The corrected mortality rate is calculated according to the following formula and the insecticidal activity is evaluated according to the following criteria.
(§1) [formula] [formula] • A: the corrected mortality rate is 100% • B: the corrected mortality rate is 90 to 99% • C: the corrected mortality rate is 80 to 89% • D: the corrected mortality rate is 50 to 79%

Laodelphax striatellus = experiment: Insecticidal test on Laodelphax striatellus; assay type: in vivo; settings: 192 h, rice seedling dip, 3rd-instar nymphs, 8 days after inoculation, read-out: activity level (corrected mortality rate)
Method: Example 16: Insecticidal Test on Laodelphax striatellus
The N-oxide compounds of formula (I), (Ia) and (Ib) of the present invention or salts thereof are separately dispersed in water and diluted to 500 ppm. Rice plant seedlings are dipped in the dispersion for about 30 seconds. After air dried, the seedlings are put into a separate glass test tube and inoculated with ten 3rd-instar nymphs of Laodelphax striatellus and then the glass test tube is kept in a room at 25° C. 8 days after the inoculation, the numbers of the dead and alive insects are counted. The corrected mortality rate is calculated according to the following formula and the insecticidal activity is evaluated according to the following criteria.
as §1

A. aegypti L1 larvae = experiment: Screening against larvae of Aedes aegypti; settings: 48 h at 27° C., percentage of mortality
Method: Example 3: Screening Method to Test Activity of N-Oxide Compounds of Formula (I), (Ia) or (Ib) Against Larvae of Aedes aegypti
Eight A. aegypti L1 larvae in a total volume of 64 μL water are added to 384-well microplates containing N-oxide compounds of formula (I), (Ia) and (Ib) formulated in 100% DMSO. The plates are incubated for 48 h at 27° C. Individual well images are acquired and analyzed using a pipeline to quantitatively assess the amount of larvae biomass accumulating at the bottom of the well. The efficacy of a compound at a given dose is expressed as “percentage of mortality” and determined by comparison to average biomass descriptors of positive and negative control wells containing 1.0 μM Fipronil or DMSO only, respectively. Dose response assay are conducted to determine an EC50 value.

Spodoptera litura = experiment: Insecticidal test on Spodoptera litura; assay type: in vivo; settings: foliar, 192 h, cabbage leaf dip, 2nd-instar larvae, 8 days after inoculation, read-out: activity level (corrected mortality rate)
Method: Example 14: Insecticidal Test on Spodoptera litura
The N-oxide compounds of formula (I), (Ia) and (Ib) of the present invention or salts thereof are separately dispersed in water and diluted to 500 ppm. Cabbage leaves are dipped in the dispersion for about 30 seconds. After air dried, the leaves are placed in a plastic Petri dish with a diameter of 9 cm and inoculated with ten 2nd-instar larvae of Spodoptera litura, after which the dish is closed and then allowed to stand in a room at 25° C. 8 days after the inoculation, the numbers of the dead and alive insects are counted. The corrected mortality rate is calculated according to the following formula and the insecticidal activity is evaluated according to the following criteria.
as §1

Row | Compound | EC50 (adult C. felis fleas [1]) [µM] | EC50 [2] [µM] | EC50 [3] [µM] | EC50 (adult C. felis fleas [4]) [nM] | mortality at 500 ppm (Plutella xylostella) [%] | mortality at 500 ppm (Laodelphax striatellus) [%] | EC50 (A. aegypti L1 larvae) [nM] | mortality at 500 ppm (Spodoptera litura) [%]
1 | CCS(=O)(=O)c1cc(-c2noc(C3CC3)n2)c[n+]([O-])c1-c1nc2cc(C(F)(F)C(F)(F)F)nnc2n1C [Compound 3, 5-(5-cyclopropyl-1,2,4-oxadiazol-3-yl)-3-(ethanesulfonyl)-2-[7-methyl-3-(1,1,2,2,2-pentafluoroethyl)-7H-imidazo[4,5-c]pyridazin-6-yl]pyridin-1-ium-1-olate] | < 10 | – | – | – | – | – | – | –
2 | CCS(=O)(=O)c1cc(-c2noc(C3CC3)n2)cnc1-c1nc2cc(C(F)(F)C(F)(F)F)c[n+]([O-])c2n1C [Compound 33] | < 10 | < 10 | 10 to 100 | 889 | 100 | 100 | – | –
3 | CCS(=O)(=O)c1cc(-c2ccc(C3(F)CC3)cc2)c[n+]([O-])c1-c1nc2cc(C(F)(F)C(F)(F)F)nnc2n1C [Compound 27] | < 10 | – | – | 460 | 100 | 100 | < 40 | –
4 | CCS(=O)(=O)c1cc(-c2noc(C3CC3)n2)cnc1-c1nc2cc(C(F)(F)C(F)(F)F)[n+]([O-])nc2n1C [Compound 2, 6-[5-(5-cyclopropyl-1,2,4-oxadiazol-3-yl)-3-(ethanesulfonyl)pyridin-2-yl]-7-methyl-3-(1,1,2,2,2-pentafluoroethyl)-7H-imidazo[4,5-c]pyridazin-2-ium-2-olate] | < 10 | 10 to 100 | – | – | – | – | – | –
5 | CCS(=O)(=O)c1cc(-c2ccc(C3(C#N)CC3)cc2)c[n+]([O-])c1-c1nc2cc(C(F)(F)F)cn(CC(F)F)c-2c1F [Compound 44, 5-[4-(1-cyanocyclopropyl)phenyl]-2-[4-(2,2-difluoroethyl)-3-fluoro-6-(trifluoromethyl)-4H-pyrrolo[3,2-b]pyridin-2-yl]-3-(ethanesulfonyl)pyridin-1-ium-1-olate] | – | 10 to 100 | – | – | – | – | – | –
6 | CCS(=O)(=O)c1cc(-c2noc(C3(C(F)(F)F)CC3)n2)cnc1-c1n(C)c2ncc(C(C)(F)F)cc2[n+]1[O-] [Compound 7] | – | – | – | 410 | – | – | – | –
7 | CCS(=O)(=O)c1cc(-c2noc(C3CC3)n2)cnc1-c1nc2cc(C(F)(F)C(F)(F)F)n[n+]([O-])c2n1C [Compound 1, 6-[5-(5-cyclopropyl-1,2,4-oxadiazol-3-yl)-3-(ethanesulfonyl)pyridin-2-yl]-7-methyl-3-(1,1,2,2,2-pentafluoroethyl)-7H-imidazo[4,5-c]pyridazin-1-ium-1-olate] | < 10 | 10 to 100 | – | 783 | 100 | 100 | – | –
8 | CCS(=O)(=O)c1cc(-c2noc(C3CC3)n2)cnc1-c1nc2cc(C(C)(F)F)n[n+]([O-])c2n1C [Compound 39] | – | – | – | 454 | 100 | 100 | – | –
9 | CCS(=O)(=O)c1cc(-c2ccc(C3(F)CC3)cc2)cnc1-c1nc2cc(C(F)(F)C(F)(F)F)n[n+]([O-])c2n1C [Compound 36] | 10 to 100 | – | 10 to 100 | 1060 | 100 | 100 | < 40 | –
10 | CCS(=O)(=O)c1cc(-c2cc(C3CC3)ccn2)cnc1-c1nc2cc(C(F)(F)C(F)(F)F)c[n+]([O-])c2n1C [Compound 29] | 10 to 100 | – | – | – | – | – | 40 to 50 | –
11 | CCS(=O)(=O)c1cc(-c2noc(C3CC3)n2)cnc1-c1nc2cc(C(C)(F)F)[n+]([O-])nc2n1C [Compound 40] | – | – | – | 807 | – | – | – | –
12 | CCS(=O)(=O)c1cc(-c2noc(C3(C(F)(F)F)CC3)n2)cnc1-c1nc2cc(C(C)(F)F)n[n+]([O-])c2n1C [Compound 8] | < 10 | 10 to 100 | – | 141 | 100 | 100 | – | 100
13 | CCS(=O)(=O)c1cc(-c2noc(C3CC3)n2)c[n+]([O-])c1-c1nc2cc(C(F)(F)C(F)(F)F)n[n+]([O-])c2n1C [Compound 4, 5-(5-cyclopropyl-1,2,4-oxadiazol-3-yl)-3-(ethanesulfonyl)-2-[7-methyl-1-oxido-3-(1,1,2,2,2-pentafluoroethyl)-7H-imidazo[4,5-c]pyridazin-1-ium-6-yl]pyridin-1-ium-1-olate] | 10 to 100 | – | – | – | – | – | – | –
14 | CCS(=O)(=O)c1cc(-c2ccc(C3CC3)cc2)c[n+]([O-])c1-c1nc2cc(C(F)(F)C(F)(F)F)cnc2n1C [Compound 23] | 10 to 100 | – | – | – | – | – | – | –
15 | CCS(=O)(=O)c1cc(-c2ccc(C3(F)CC3)cc2)c[n+]([O-])c1-c1nc2cc(C(F)(F)C(F)(F)F)n[n+]([O-])c2n1C [Compound 45] | < 10 | – | – | – | – | – | < 40 | –
